{"source": "ChEMBL document CHEMBL4706603", "about": "“Discovery of VEGFR-2 inhibitors exerting significant anticancer activity against CD44+ and CD133+ cancer stem cells (CSCs): Reversal of TGF-β induced epithelial-mesenchymal transition (EMT) in hepatocellular carcinoma” (Eur J Med Chem, 2020)", "key": {"[1]": {"experiment": "AUMC (0 to infinity) in Wistar rat at 5 mg/kg, po by HPLC-MS analysis", "type": "ADME, organism-based", "conditions": "in vivo"}, "HepG2 [2]": {"system": "HepG2", "experiment": "Antiproliferative activity against human HepG2 cells harboring CD44+ assessed as reduction in cell viability incubated for 24 hrs by MTT assay", "type": "functional, cell-based"}, "HepG2 [3]": {"system": "HepG2", "experiment": "Antimigratory activity against human HepG2 cells assessed as reduction in cell migration at IC50 by transwell migration assay", "type": "functional, cell-based", "conditions": "TDE = time-dependent effect"}, "Chorioallantoic membrane [4]": {"system": "Chorioallantoic membrane", "experiment": "Antiangiogenic activity in chicken fertilized egg chorioallantoic membrane measured upto 72 hrs by CAM assay", "type": "functional, tissue-based", "conditions": "Gallus gallus, dose 0.01-2 µM, time hrs <=72"}, "[5]": {"experiment": "Toxicity in Wistar rat assessed as effect on SGOT level at 5 to 2000 mg/kg, po and measured on day 15", "type": "organism-based", "conditions": "in vivo, 360 h, dose 5-2000 mg/kg, time 15 day"}, "[6]": {"experiment": "Toxicity in Wistar rat assessed as effect on relative weight of lungs at 5 to 2000 mg/kg, po and measured on day 15", "type": "organism-based", "conditions": "in vivo, 360 h, dose 5-2000 mg/kg, time 15 day"}, "[7]": {"experiment": "Toxicity in Wistar rat assessed as effect on uric acid level in serum at 5 to 2000 mg/kg, po and measured on day 15", "type": "organism-based", "conditions": "in vivo, 360 h, dose 5-2000 mg/kg, time 15 day"}, "HepG2 [8]": {"system": "HepG2", "experiment": "Cytotoxicity against human HepG2 cells assessed as reduction in cell viability by trypan blue assay", "type": "functional, cell-based"}, "MDA-MB-231 [9]": {"system": "MDA-MB-231", "experiment": "Cytotoxicity against human MDA-MB-231 cells assessed as reduction in cell viability by trypan blue assay", "type": "functional, cell-based"}, "[10]": {"experiment": "Toxicity in Wistar rat assessed as normal cardiac muscles and cardiac fibers with intact length without inflammatory changes at 2000 mg/kg, po and measured on day 15 by microscopic analysis", "type": "organism-based", "conditions": "in vivo, 360 h, time 15 day"}, "HUVEC": {"system": "HUVEC", "experiment": "Antiproliferative activity against human HUVEC assessed as reduction in cell viability incubated for 24 hrs by MTT assay", "type": "functional, cell-based"}, "HepG2 [11]": {"system": "HepG2", "experiment": "Induction of cell cycle arrest in human HepG2 cells harboring CD44+ assessed as increase in G0/G1 phase arrest at IC50 concentration incubated for 48 hrs by PI staining based flow cytometry analysis", "type": "functional"}, "[12]": {"experiment": "Half life in Wistar rat at 5 mg/kg, po measured upto 72 hrs by HPLC-MS analysis", "type": "ADME, organism-based", "conditions": "in vivo"}, "[13]": {"experiment": "Toxicity in Wistar rat assessed as effect on SGPT level at 5 to 2000 mg/kg, po and measured on day 15", "type": "organism-based", "conditions": "in vivo, 360 h, dose 5-2000 mg/kg, time 15 day"}, "HepG2 [14]": {"system": "HepG2", "experiment": "Induction of DNA damage in human HepG2 cells assessed as increase in length of comet tail with decrease in nuclear DNA content with complete DNA damage at IC50 incubated for 24 hrs by Comet assay", "type": "functional, cell-based"}, "[15]": {"experiment": "Toxicity in Wistar rat assessed as effect on food consumption at 5 to 2000 mg/kg, po and observed for 14 days", "type": "organism-based", "conditions": "in vivo, 336 h, dose 5-2000 mg/kg, time 14 day"}, "MCF7 [16]": {"system": "MCF7", "experiment": "Antimigratory activity against human MCF7 cells assessed as wound healing at IC50 incubated for 24 hrs by inverted microscopic analysis (reference value: 27.64 %)", "type": "functional"}, "[17]": {"experiment": "Toxicity in Wistar rat assessed as effect on body weight at 5 to 300 mg/kg, po and observed for 14 days", "type": "organism-based", "conditions": "in vivo, 336 h, dose 5-300 mg/kg, time 14 day"}, "MDA-MB-231 [18]": {"system": "MDA-MB-231", "experiment": "Induction of apoptosis in human MDA-MB-231 cells assessed as viable cells at IC50 incubated for 72 hrs by Alexa Fluor488-annexin V/PI staining based flow cytometric analysis (Rvb= 99.4 %)", "type": "functional"}, "MDA-MB-231 [19]": {"system": "MDA-MB-231", "experiment": "Cytotoxicity against human MDA-MB-231 cells assessed as reduction in cell viability incubated for 24 hrs by MTT assay", "type": "functional, cell-based"}, "[20]": {"experiment": "Toxicity in Wistar rat assessed as effect on hematological parameters at 5 to 2000 mg/kg, po and measured on day 15", "type": "organism-based", "conditions": "in vivo, 360 h, dose 5-2000 mg/kg, time 15 day"}, "[21]": {"experiment": "Toxicity in Wistar rat assessed as effect on ALP level in serum at 5 to 2000 mg/kg, po and measured on day 15", "type": "organism-based", "conditions": "in vivo, 360 h, dose 5-2000 mg/kg, time 15 day"}, "[22]": {"experiment": "Toxicity in po dosed Wistar rat", "type": "organism-based", "conditions": "in vivo"}, "HepG2 [23]": {"system": "HepG2", "experiment": "Antiproliferative activity against human HepG2 cells harboring CD133+ assessed as reduction in cell viability incubated for 24 hrs by MTT assay", "type": "functional, cell-based"}, "HepG2 [24]": {"system": "HepG2", "experiment": "Induction of apoptosis in human HepG2 cells assessed as late apoptotic cells by measuring green fluorescence membrane with fragmented red nucleus at IC50 incubated for 24 hrs by Alexa Fluor488-annexin V/PI staining based fluorescence analysis", "type": "functional, cell-based"}, "MDA-MB-231 [25]": {"system": "MDA-MB-231", "experiment": "Induction of apoptosis in human MDA-MB-231 cells assessed as necrotic cells at IC50 incubated for 72 hrs by Alexa Fluor488-annexin V/PI staining based flow cytometric analysis (Rvb= 0.0 %)", "type": "functional"}, "HepG2 [26]": {"system": "HepG2", "experiment": "Induction of apoptosis in human HepG2 cells assessed as shrinkage of nucleus by measuring orange coloured fluorescence at IC50 incubated for 24 hrs by EtBr/AO staining based fluorescence microscopic analysis", "type": "functional, cell-based"}, "[27]": {"experiment": "Toxicity in Wistar rat assessed as normal ovary with primary to tertiary developing follicles and mature follicles at 2000 mg/kg, po and measured on day 15 by microscopic analysis", "type": "organism-based", "conditions": "in vivo, 360 h, time 15 day"}, "HepG2 [28]": {"system": "HepG2", "experiment": "Inhibition of epithelial-mesenchymal transition in TGF-beta-induced human HepG2 cells assessed as vimentin expression at IC50 incubated for 48 hrs by flow cytometry analysis (reference value: 98.19 %)", "type": "functional", "design": "scale not given: the % may be the effect or the level left"}, "[29]": {"experiment": "Inhibition of VEGF expression in human HUVEC assessed as mean fluorescence intensity at IC50 incubated for 48 hrs by FITC based flow cytometry analysis (reference value: 53.91+/- 0.95)", "type": "functional"}, "Chorioallantoic membrane [30]": {"system": "Chorioallantoic membrane", "experiment": "Antiangiogenic activity in chicken fertilized egg chorioallantoic membrane assessed as reduction in membrane growth at 0.01 uM measured upto 72 hrs by CAM assay relative to control", "type": "functional, tissue-based", "conditions": "Gallus gallus, time hrs <=72"}, "[31]": {"experiment": "Toxicity in Wistar rat assessed as effect on total bilirubin level in serum at 5 to 2000 mg/kg, po and measured on day 15", "type": "organism-based", "conditions": "in vivo, 360 h, dose 5-2000 mg/kg, time 15 day"}, "[32]": {"experiment": "Toxicity in female Wistar rat assessed as difficult to breathe at 2000 mg/kg, po observed for 48 hrs", "type": "organism-based", "conditions": "in vivo"}, "[33]": {"experiment": "Inhibition of VEGF expression in human HUVEC at IC50 incubated for 48 hrs by FITC based flow cytometry analysis relative to control", "type": "functional"}, "[34]": {"experiment": "Toxicity in female Wistar rat assessed as roughened fur at 2000 mg/kg, po observed for 48 hrs", "type": "organism-based", "conditions": "in vivo"}, "HepG2 [35]": {"system": "HepG2", "experiment": "Induction of ROS production in human HepG2 cells at IC50 incubated for 3 hrs by fluorescence microscopic analysis", "type": "functional, cell-based"}, "[36]": {"experiment": "Toxicity in Wistar rat assessed as normal renal parenchyma with intact renal tubules and glomeruli without inflammatory or pathological changes at 2000 mg/kg, po and measured on day 15 by microscopic analysis", "type": "organism-based", "conditions": "in vivo, 360 h, time 15 day"}, "MCF7 [37]": {"system": "MCF7", "experiment": "Cytotoxicity against human MCF7 cells assessed as reduction in cell viability incubated for 24 hrs by MTT assay", "type": "functional, cell-based"}, "[38]": {"experiment": "Inhibition of VEGFR2 expression in human HUVEC at IC50 incubated for 48 hrs by fluorescence microscopic analysis relative to control", "type": "functional"}}, "note": "The source made the active and inactive calls. The rule behind the calls is not given here.", "data": [{"smiles": "CC(=O)Nc1ccc(Oc2cccc3c(NC(=O)Nc4cccc(C(F)(F)F)c4)cccc23)cc1", "values": [{"measurement": "AUMC", "setting": "[1]", "value": 8929.284, "unit": "ug/ml.hr^2"}, {"measurement": "inhibition", "setting": "HepG2 [2]", "value": "Dose-dependent effect"}, {"measurement": "IC50", "setting": "HepG2 [2]; HepG2, 24 h", "value": 3290, "unit": "nM"}, {"measurement": "Activity", "setting": "HepG2 [3]", "value": "Tde"}, {"measurement": "Activity", "setting": "Chorioallantoic membrane [4]", "value": "Dose-dependent effect"}, {"measurement": "Activity", "setting": "[5]", "value": "Non-Toxic"}, {"measurement": "Activity", "setting": "[6]", "value": "Non-Toxic"}, {"measurement": "Activity", "setting": "[7]", "value": "Non-Toxic"}, {"measurement": "IC50", "setting": "HepG2 [8]", "value": 1170, "unit": "nM"}, {"measurement": "inhibition", "setting": "HepG2 [8]", "value": "Dose-dependent effect"}, {"measurement": "IC50", "setting": "MDA-MB-231 [9]", "value": 3580, "unit": "nM"}, {"measurement": "inhibition", "setting": "MDA-MB-231 [9]", "value": "Dose-dependent effect"}, {"measurement": "Activity", "setting": "[10]", "value": "Non-Toxic"}, {"measurement": "IC50", "setting": "HUVEC", "value": 9640, "unit": "nM"}, {"measurement": "inhibition", "setting": "HUVEC", "value": "Dose-dependent effect"}, {"measurement": "Activity", "setting": "HepG2 [11]", "value": "Active"}, {"measurement": "half-life", "setting": "[12]", "value": 11.9, "unit": "h"}, {"measurement": "Activity", "setting": "[13]", "value": "Non-Toxic"}, {"measurement": "Activity", "setting": "HepG2 [14]", "value": "Active"}, {"measurement": "Activity", "setting": "[15]", "value": "Non-Toxic"}, {"measurement": "Activity", "setting": "MCF7 [16]", "value": 3.02, "unit": "%"}, {"measurement": "Activity", "setting": "[17]", "value": "Non-Toxic"}, {"measurement": "Activity", "setting": "MDA-MB-231 [18]", "value": 27.3, "unit": "%"}, {"measurement": "inhibition", "setting": "MDA-MB-231 [19]", "value": "Dose-dependent effect"}, {"measurement": "IC50", "setting": "MDA-MB-231 [19]; MDA-MB-231, 24 h", "value": 1410, "unit": "nM"}, {"measurement": "Activity", "setting": "[20]", "value": "Non-Toxic"}, {"measurement": "Activity", "setting": "[21]", "value": "Non-Toxic"}, {"measurement": "LD50", "setting": "[22]", "value": "> 2000", "unit": "mg/kg"}, {"measurement": "inhibition", "setting": "HepG2 [23]", "value": "Dose-dependent effect"}, {"measurement": "IC50", "setting": "HepG2 [23]; HepG2, 24 h", "value": 2200, "unit": "nM"}, {"measurement": "Activity", "setting": "HepG2 [24]", "value": "Active"}, {"measurement": "Activity", "setting": "MDA-MB-231 [25]", "value": 0.3, "unit": "%"}, {"measurement": "Activity", "setting": "HepG2 [26]", "value": "Active"}, {"measurement": "Activity", "setting": "[27]", "value": "Non-Toxic"}, {"measurement": "Activity", "setting": "HepG2 [28]", "value": 20.44, "unit": "%"}, {"measurement": "Flu intensity", "setting": "[29]", "value": 21.41}, {"measurement": "inhibition", "setting": "Chorioallantoic membrane [30]", "value": "> 50", "unit": "%"}, {"measurement": "Activity", "setting": "[31]", "value": "Non-Toxic"}, {"measurement": "Activity", "setting": "[32]", "value": "Toxic"}, {"measurement": "fold change (FC)", "setting": "[33]", "value": 0.39}, {"measurement": "Activity", "setting": "[34]", "value": "Toxic"}, {"measurement": "Activity", "setting": "HepG2 [35]", "value": "Active"}, {"measurement": "Activity", "setting": "[36]", "value": "Non-Toxic"}, {"measurement": "inhibition", "setting": "MCF7 [37]", "value": "Dose-dependent effect"}, {"measurement": "fold change (FC)", "setting": "[38]", "value": 0.37}]}]}
